Article doi:10.1101/2025.11.12.687946v2 (biorxiv, 2025)

T1: PaSuhB (Pseudomonas aeruginosa, UniProt Q9HXI4)
T1 sequence (Q9HXI4 1-271): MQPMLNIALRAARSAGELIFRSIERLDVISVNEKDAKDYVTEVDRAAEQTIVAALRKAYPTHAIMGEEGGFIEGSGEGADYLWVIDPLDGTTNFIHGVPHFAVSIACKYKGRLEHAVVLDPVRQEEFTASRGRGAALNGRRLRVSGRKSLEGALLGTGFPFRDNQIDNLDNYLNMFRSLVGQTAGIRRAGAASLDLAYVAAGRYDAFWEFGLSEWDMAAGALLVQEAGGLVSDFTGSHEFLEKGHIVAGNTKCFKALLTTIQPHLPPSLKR

B1: PaSuhB (Pseudomonas aeruginosa PAO1) (protein)
chain: MQPMLNIALRAARSAGELIFRSIERLDVISVNEKDAKDYVTEVDRAAEQTIVAALRKAYPTHAIMGEEGGFIEGSGEGADYLWVIDPLDGTTNFIHGVPHFAVSIACKYKGRLEHAVVLDPVRQEEFTASRGRGAALNGRRLRVSGRKSLEGALLGTGFPFRDNQIDNLDNYLNMFRSLVGQTAGIRRAGAASLDLAYVAAGRYDAFWEFGLSEWDMAAGALLVQEAGGLVSDFTGSHEFLEKGHIVAGNTKCFKALLTTIQPHLPPSLKR

Key:
[1] = target: T1, PaSuhB; assay: biochemical
[2] = target: T1, PaSuhB; assay: biochemical; remark: listed apart in the source
[3] = substrate: O=P(O)(O)O[C@@H]1[C@H](O)[C@H](O)[C@@H](O)[C@H](O)[C@H]1O; assay: purified protein; conditions: Mg2+, pH 8.0, 37 °C, no inhibitor

Molecule | IC50 [1] [µM] | Kd [2] [µM] | Km [3] [µM]
O=C(O)c1cc(O)c(O)c(O)c1 [GDE, 3,4,5-trihydroxybenzoic acid] | ~1340 | 8.71 | –
B1 | – | – | 43.82
